Assay results: patent publication US8741964B2, “Uses of nonenal” (Industry-Academic Cooperation Foundation, Yonsei University, priority 2011, dated 2014)

What was measured:
[1] = system: rats; settings: cited from earlier work
[2] = system: IL-6; assay: RT-PCR analysis of visceral fat tissues: IL-6 gene expression; format: in vivo, mice; settings: feeding nonenal in HFD vs HFD
Source text: (§1) The obesity-inducing control diet used in the test was high-fat diet (HFD: 40% fat calorie, 17 g lard+3% corn oil/100 g diet). Diets supplemented with nonenal (nonenal-supplemented high fat diet, NED) had the same composition as HFD, except that nonenal was included at 0.2% (see Table 1). The normal diet group (Chow) was fed with commercially available rodent chow. Nonenal was purchased from Sigma-Aldrich.
(§2) 5-week-old male C57BL/6J mice (Orient, Korea) were accustomed to the laboratory environment for 1 week while feeding solid feed. Then, they were randomly divided into normal diet, high-fat diet and test groups and bred for a total of 10 weeks. The diet was given between 10 and 11 a.m. every day together with water. Food intake was measured every day and body weight was measured once a week. In order to avoid transient body weight increase after feed intake, body weight was measured 2 hours after removing the feed. […]
(§3) After adding 1 mL of Trizol agent per 0.1 g of visceral fat tissues, the mixture was homogenized and centrifuged at 12,000×g for 10 min at 4° C. […] The RNA sample concentration was measured at a wavelength of 260 nm and 280 nm using a UV/VIS spectrophotometer (Beckman coulter, DU730) and the integrity of RNA sample was verified by agarose gel electrophoresis. […]

[3] = system: TNF-α; assay: RT-PCR analysis of visceral fat tissues: TNF-α gene expression; format: in vivo, mice; settings: feeding nonenal in HFD vs HFD
Source text: as §1, §2, §3

[4] = system: microbial growth; settings: cited from earlier work
[5] = system: PPARγ2; assay: RT-PCR analysis of visceral fat tissues: PPARγ2 gene expression; format: in vivo, mice; settings: nonenal supplemented to the HFD vs HFD; to levels similar for the Chow group
Source text: as §1, §2, §3

[6] = system: C57BL/6J mice; assay: Biochemical analysis of blood (plasma lipids, glucose, ALT, AST) of mice fed test diets; format: in vivo; settings: 10 weeks
Source text: as §1
(§4) 5-week-old male C57BL/6J mice (Orient, Korea) were accustomed to the laboratory environment for 1 week while feeding solid feed. Then, they were randomly divided into normal diet, high-fat diet and test groups and bred for a total of 10 weeks. The diet was given between 10 and 11 a.m. every day together with water. Food intake was measured every day and body weight was measured once a week. In order to avoid transient body weight increase after feed intake, body weight was measured 2 hours after removing the feed. After fasting the test animal for at least 12 hours and anesthetizing with diethyl ether, blood, liver and visceral fat (epididymal fat, perirenal fat, mesenteric fat and retroperitoneal fat) were taken and weighed after washing with 0.1 M PBS (pH 7.4). Blood taken from the abdominal aorta was centrifuged at 1000×g for 15 minutes for the separation of plasma.
After 10 weeks of breeding, total cholesterol, triglyceride and glucose levels in the plasma and lipid levels in the liver tissue were measured as follows. Total cholesterol, triglyceride, free fatty acid and glucose levels in the plasma were measured twice for each using a commercially available kit (Bio Clinical System). The activity of ALT (alanine aminotransferase) and AST (aspartate aminotransferase) used as liver function indicator were measured twice for each using a commercially available kit (Bio Clinical System, Korea).

[7] = system: C57BL/6J mice; assay: Body weight, food intake and visceral fat-pad weights of mice fed test diets for 10 weeks; format: in vivo
Source text: as §1, §4

[8] = system: C57BL/6J mice; assay: Analysis of lipid level in liver tissues of mice fed test diets; format: in vivo; settings: 0.2% nonenal in high-fat diet, 10 weeks, as compared to HFD
Source text: as §1, §4
Lipids were extracted from the liver tissue according to Folch et al.'s method Folch J et al., J Biol. Chem. 226: 497-509 (1957)). After adding 1 mL of distilled water to 0.25 g of liver tissue, the liver tissue was homogenized using a Polytron homogenizer (IKA-Werke GmbH & Co., Ultra-Turrax, Staufen, Germany). After adding 5 mL of chloroform:methanol solution (2:1, v/v) to the homogenate and mixing well, the mixture was centrifuged at 1000×g for 10 minutes. After adding 2 mL of chloroform:methanol solution (2:1, v/v) again to the supernatant, the same procedure was repeated to completely separate the lipid components of the liver. […] The dried lipids were dissolved in 1 mL of methanol and then analyzed. […]

[9] = system: aP2; assay: RT-PCR analysis of visceral fat tissues: aP2 gene expression; format: in vivo, mice; settings: nonenal supplemented to the HFD vs HFD; to levels similar for the Chow group
Source text: as §1, §2, §3

[10] = system: C/EBPα; assay: RT-PCR analysis of visceral fat tissues: C/EBPα gene expression; format: in vivo, mice; settings: nonenal supplemented to the HFD vs HFD; to levels similar for the Chow group
Source text: as §1, §2, §3

[11] = 0.2% nonenal in high-fat diet, as compared to HFD
[12] = 0.2% nonenal in high-fat diet, as compared to HFD group

CCCCCC/C=C/C=O [nonenal, trans-2-nonenal]
LD50 [1]: more than 5,000 mg/kg | HFD-induced elevation in the expression of IL-6 in visceral fat tissues [2]: significantly reversed | HFD-induced elevation in the expression of TNF-α in visceral fat tissues [3]: significantly reversed | microbial growth inhibitory effects [4]: microbial growth inhibitory effects | expression of PPARγ2 gene (mRNA) in visceral fat tissues [5]: significantly decreased | reduction of fasting blood sugar level [6, 11]: 31% | lowering of plasma LDL+VLDL cholesterol level [6, 12]: 20% | lowering of plasma free fatty acid level [6, 12]: 41% | lowering of plasma total cholesterol level [6, 12]: 19% | lowering of plasma triglyceride level [6, 12]: 37% | decrease of plasma activity of ALT ([6]; NED group vs HFD group): 28% | decrease of plasma activity of AST ([6]; NED group vs HFD group): 31% | decrease of body weight gain ([7]; 0.2% nonenal in high-fat diet (NED), as compared to HFD): 49% | weight of epididymal fat-pad [7, 11]: significantly reduced | weight of mesenteric fat-pad [7, 11]: significantly reduced | weight of perirenal fat-pad [7, 11]: significantly reduced | weight of retroperitoneal fat-pad [7, 11]: significantly reduced | reduction of total visceral fat weight ([7]; NED group vs HFD group): 59% | decrease of cholesterol level in liver tissue [8]: 75% | decrease of free fatty acid level in liver tissue [8]: 74% | decrease of triglyceride level in liver tissue [8]: 78% | expression of aP2 gene (mRNA) in visceral fat tissues [9]: significantly decreased | expression of C/EBPα gene (mRNA) in visceral fat tissues [10]: significantly decreased
